# Data taken from patent US10188634B2, “3-(3H-imidazo[4,5-C]pyridin-2-yl)-1 H-pyrazolo[4,3-B]pyridines and therapeutic uses thereof” (Samumed, LLC, priority 2015, dated 2019).
# Key:
# [1] = tested on: LL29 cells (primary human fibroblasts derived from IPF patients) treated with TGF-β1, α-smooth muscle actin; experiment: Inhibition of the fibrotic process: αSMA staining in TGF-β1 treated primary human fibroblasts from IPF patients (LL29 cells); assay type: cell-based; conditions: Fibroblast, 96 h; for EC50: LL29 cells treated with TGF-β1 (20 ng/mL), 4 days; for inhibition at 10 µM: LL29 cells treated with TGF-β1, 4 days, read-out: percent inhibition in brackets (given for EC50 >10 μM)
# SW480 colon cancer cells = experiment: Cell viability assay (CellTiter-Blue) in SW480 colon cancer cells; assay type: cell-based; conditions: Homo sapiens, 96 h; for inhibition at 10 µM: four days, CellTiter-Blue, read-out: percent inhibition at 10 μM (given for EC50 of >10 μM); for EC50: four days incubation, CellTiter-Blue cell viability
# How it was run: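 Four-day exposure of SW480 cells (~2×10^3/well) to compound from 10 μM down to 0.004 μM in 1:3 steps, in duplicate. Resorufin fluorescence from CellTiter-Blue after ~3 h served as the viability read-out. EC50 values came from nonlinear curve fits, with % inhibition at 10 μM given where EC50 >10 μM.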
Structure (SMILES),EC50 (SW480 colon cancer cells),EC50 [1],inhibition at 10 µM (SW480 colon cancer cells),inhibition at 10 µM [1]
"CCCC(=O)Nc1cncc(-c2ccc3[nH]nc(-c4nc5c(-c6cc(F)cc(CNS(C)(=O)=O)c6)cncc5[nH]4)c3n2)c1 [Compound 465, N-(5-(3-(7-(3-Fluoro-5-(methylsulfonamidomethyl)phenyl)-3H-imidazo[4,5-c]pyridin-2-yl)-1H-pyrazolo[4,3-b]pyridin-5-yl)pyridin-3-yl)butyramide]",> 10 µM,2.35 µM,1.8%,
"CS(=O)(=O)NCc1cc(F)cc(-c2cncc3[nH]c(-c4n[nH]c5ccc(-c6cncc(CNCc7ccccc7)c6)nc45)nc23)c1 [Compound 472, N-(3-(2-(5-(5-((Benzylamino)methyl)pyridin-3-yl)-1H-pyrazolo[4,3-b]pyridin-3-yl)-3H-imidazo[4,5-c]pyridin-7-yl)-5-fluorobenzyl)methanesulfonamide]",> 10 µM,7.27 µM,0%,
"CS(=O)(=O)NCc1cc(F)cc(-c2cncc3[nH]c(-c4n[nH]c5ccc(-c6cncnc6)nc45)nc23)c1 [Compound 475, N-(3-Fluoro-5-(2-(5-(pyrimidin-5-yl)-1H-pyrazolo[4,3-b]pyridin-3-yl)-3H-imidazo[4,5-c]pyridin-7-yl)benzyl)methanesulfonamide]",> 10 µM,2.44 µM,0.9%,
"Fc1cccc(-c2cncc3[nH]c(-c4n[nH]c5ccc(C6=CCNCC6)nc45)nc23)c1 [Compound 478, 3-(7-(3-Fluorophenyl)-3H-imidazo[4,5-c]pyridin-2-yl)-5-(1,2,3,6-tetrahydropyridin-4-yl)-1H-pyrazolo[4,3-b]pyridine]",> 10 µM,4.99 µM,0%,
"NC1CN(c2cncc(-c3ccc4[nH]nc(-c5nc6c(-c7cccc(F)c7)cncc6[nH]5)c4n3)n2)C1 [Compound 482, 1-(6-(3-(7-(3-Fluorophenyl)-3H-imidazo[4,5-c]pyridin-2-yl)-1H-pyrazolo[4,3-b]pyridin-5-yl)pyrazin-2-yl)azetidin-3-amine]",> 10 µM,> 10 µM,3.8%,16.7%
"Fc1cccc(-c2cncc3[nH]c(-c4n[nH]c5ccc(-c6cncc(OC7CCNCC7)c6)nc45)nc23)c1 [Compound 484, 3-(7-(3-Fluorophenyl)-3H-imidazo[4,5-c]pyridin-2-yl)-5-(5-(piperidin-4-yloxy)pyridin-3-yl)-1H-pyrazolo[4,3-b]pyridine]",> 10 µM,1.42 µM,11.7%,
"Oc1cncc(-c2ccc3[nH]nc(-c4nc5c(-c6cccc(F)c6)cncc5[nH]4)c3n2)c1 [Compound 489, 5-(3-(7-(3-Fluorophenyl)-3H-imidazo[4,5-c]pyridin-2-yl)-1H-pyrazolo[4,3-b]pyridin-5-yl)pyridin-3-ol]",> 10 µM,2.31 µM,3.7%,
"c1cncc(-c2cncc3[nH]c(-c4n[nH]c5ccc(-c6cncc(OC7CCCCC7)c6)nc45)nc23)c1 [Compound 531, 5-(5-(Cyclohexyloxy)pyridin-3-yl)-3-(7-(pyridin-3-yl)-3H-imidazo[4,5-c]pyridin-2-yl)-1H-pyrazolo[4,3-b]pyridine]",> 10 µM,3.2 µM,15.5%,
"c1ccc(COc2cncc(-c3ccc4[nH]nc(-c5nc6c(-c7ccncc7)cncc6[nH]5)c4n3)c2)cc1 [Compound 554, 5-(5-(Benzyloxy)pyridin-3-yl)-3-(7-(pyridin-4-yl)-3H-imidazo[4,5-c]pyridin-2-yl)-1H-pyrazolo[4,3-b]pyridine]",> 10 µM,1.03 µM,0%,
"c1cc(-c2cncc3[nH]c(-c4n[nH]c5ccc(-c6cnccn6)nc45)nc23)ccn1 [Compound 556, 5-(Pyrazin-2-yl)-3-(7-(pyridin-4-yl)-3H-imidazo[4,5-c]pyridin-2-yl)-1H-pyrazolo[4,3-b]pyridine]",> 10 µM,0.014 µM,13.7%,
"Cn1cc(-c2ccc3[nH]nc(-c4nc5c(-c6cccs6)cncc5[nH]4)c3n2)cn1 [Compound 656, 5-(1-Methyl-1H-pyrazol-4-yl)-3-(7-(thiophen-2-yl)-3H-imidazo[4,5-c]pyridin-2-yl)-1H-pyrazolo[4,3-b]pyridine]",> 10 µM,> 10 µM,1.3%,46.4%
"CN(C)CCOc1cncc(-c2ccc3[nH]nc(-c4nc5c(-c6cccs6)cncc5[nH]4)c3n2)c1 [Compound 663, N,N-Dimethyl-2-((5-(3-(7-(thiophen-2-yl)-3H-imidazo[4,5-c]pyridin-2-yl)-1H-pyrazolo[4,3-b]pyridin-5-yl)pyridin-3-yl)oxy)ethan-1-amine]",> 10 µM,1.22 µM,15.5%,

# Further lines, with some results ahead:
EC50 (SW480 colon cancer cells),Structure (SMILES),EC50 [1],inhibition at 10 µM (SW480 colon cancer cells),inhibition at 10 µM [1]
> 10 µM,"Fc1cccc(-c2cncc3[nH]c(-c4n[nH]c5ccc(C6CCNCC6)nc45)nc23)c1 [Compound 477, 3-(7-(3-Fluorophenyl)-3H-imidazo[4,5-c]pyridin-2-yl)-5-(piperidin-4-yl)-1H-pyrazolo[4,3-b]pyridine]",4.56 µM,1.8%,
> 10 µM,"Fc1cccc(-c2cncc3[nH]c(-c4n[nH]c5ccc(-c6cn[nH]c6)nc45)nc23)c1 [Compound 479, 3-(7-(3-Fluorophenyl)-3H-imidazo[4,5-c]pyridin-2-yl)-5-(1H-pyrazol-4-yl)-1H-pyrazolo[4,3-b]pyridine]",> 10 µM,5.5%,36.2%
> 10 µM,"Cn1cc(-c2ccc3[nH]nc(-c4nc5c(-c6cccc(F)c6)cncc5[nH]4)c3n2)cn1 [Compound 480, 3-(7-(3-Fluorophenyl)-3H-imidazo[4,5-c]pyridin-2-yl)-5-(1-methyl-1H-pyrazol-4-yl)-1H-pyrazolo[4,3-b]pyridine]",> 10 µM,1.7%,4.2%
2.3 µM,"Cc1ncc(-c2ccc3[nH]nc(-c4nc5c(-c6cccc(F)c6)cncc5[nH]4)c3n2)n1C [Compound 481, 5-(1,2-Dimethyl-1H-imidazol-5-yl)-3-(7-(3-fluorophenyl)-3H-imidazo[4,5-c]pyridin-2-yl)-1H-pyrazolo[4,3-b]pyridine]",> 10 µM,,4.5%
> 10 µM,"Fc1cccc(-c2cncc3[nH]c(-c4n[nH]c5ccc(-c6cnccn6)nc45)nc23)c1 [Compound 492, 3-(7-(3-Fluorophenyl)-3H-imidazo[4,5-c]pyridin-2-yl)-5-(pyrazin-2-yl)-1H-pyrazolo[4,3-b]pyridine]",> 10 µM,7.5%,0%
> 10 µM,"Oc1cncc(-c2ccc3[nH]nc(-c4nc5c(-c6cccnc6)cncc5[nH]4)c3n2)c1 [Compound 537, 5-(3-(7-(Pyridin-3-yl)-3H-imidazo[4,5-c]pyridin-2-yl)-1H-pyrazolo[4,3-b]pyridin-5-yl)pyridin-3-ol]",> 10 µM,7.6%,49.8%
> 10 µM,"c1cc(-c2cncc3[nH]c(-c4n[nH]c5ccc(-c6cncc(OC7CCNCC7)c6)nc45)nc23)ccn1 [Compound 548, 5-(5-(Piperidin-4-yloxy)pyridin-3-yl)-3-(7-(pyridin-4-yl)-3H-imidazo[4,5-c]pyridin-2-yl)-1H-pyrazolo[4,3-b]pyridine]",2.47 µM,10.3%,
